Like-named read-outs stand apart in the source and are kept apart here.
What was measured:
HEC-1A xenograft = HEC-1A xenograft mouse model; type: in vivo, nude mice; details: oral gavage daily, 5 weeks; Pterostilbene 30 mg/kg, megestrol acetate 10 mg/kg, or both; versus vehicle
Procedure: Animal models. All animal studies were carried out under protocols approved by the Institutional Animal Care and Use Committee (IACUC) at City of Hope in accordance with all applicable federal, state, and local requirements and institutional guidelines. HEC-1A cells (2×10^6 in 100 μl) were inoculated subcutaneously into the right flank of 6- to 8-week-old female nude mice. Once the tumors were palpable, animals were randomized into groups of 10 to achieve an equal distribution of tumor sizes in all treatment groups. Mice were then treated by oral gavage daily with vehicle, Pterostilbene (30 mg/kg), megestrol acetate (10 mg/kg), or a combination of both agents. The doses for these two drugs were chosen based on previously published studies. Tumor volumes were assessed using calipers twice a week. Tumor volumes were determined using the formula (Width)^2×Length×0.52. Body weight was monitored weekly as an indicator of drug-induced toxicity and overall health of the mice.
Statistical analysis. Data are presented as mean±S.D. Student's t-test was used to compare the means of two groups. All the experiments were repeated 2 to 4 times. P<0.05 was considered statistically significant.

[1] = recent clinical trial; cited from earlier work
[2] = compared to Resveratrol; cited from earlier work
HEC-1A cells = test: Cell viability assay (MTS / acid phosphatase), combination index by Chou-Talalay; type: cell-based; details: Homo sapiens, read-out: IC50 (concentration for 50% growth inhibition), pterostilbene alone, 48 h, one range printed for both cell lines
Procedure: (§1) Cell Culture. Human endometrial cancer cell lines HEC-1A and ECC-1 cells were from American Type Culture Collection (Rockville, Md.). […] All cells were grown in 5% (v/v) CO2 at 37° C.
(§2) Cell viability assays. Cells (4000 per well) were plated in 96-well plate format in 100 μl growth medium. Cells were treated with DMSO or drugs the next day at the indicated concentrations and incubated for an additional 2-3 days. Viable cells were determined either by the MTS assay (Promega, Madison, Wis., USA) or the acid phosphatase assay^53,54. For the MTS assay, 25 μl MTS solution was added directly into each well according to the manufacturer's instructions. For the acid phosphatase assay, all the media was removed and p-nitrophenyl phosphate substrate (10 mM 100 μl) was added into each well and incubated at 37° C. for 45 mins. […] The IC50 was determined using the Calcusyn software (Biosoft, Ferguson, Mo.).
(§3) Determination of combination index (CI). The combination index (CI) was determined using the Chou-Talalay method^37 using the Calcusyn software (Biosoft, MO).

ECC-1 cells = test: as above; type: cell-based; details: Homo sapiens, ECC-1, read-out: IC50 (concentration for 50% growth inhibition), pterostilbene alone, 48 h, one range printed for both cell lines
Procedure: as §1, §2, §3

[3] = test system: p-STAT3, p-AKT, p-ERK and ER-α; test: Western blot of cell signaling molecules in HEC-1A cells; type: cell-based, Human; details: 24 h, single agents at various concentrations, combination 75 μM each
Procedure: (§4) Western blot analysis. Western blots were performed as described previously^55,56 Cells were grown in complete medium overnight and treated with DMSO or drugs at various concentrations for 24 hrs. Cells were washed in cold PBS and lysed in RIPA lysis buffer (Thermo Scientific) containing Halt protease and phosphatase inhibitors (Thermo Scientific). Proteins were quantified using BCA protein assay reagent (Thermo Scientific). Equal amounts of protein were separated by SDS-polyacrylamide gel electrophoresis, transferred to polyvinylidene fluoride membranes and incubated with total and phosphorylated protein-specific antibodies. Binding of the primary antibody was detected using a horseradish peroxidase (HRP)-conjugated secondary antibody and chemiluminescent substrates (Thermo Scientific).

[4] = test system: cell survival molecules and cell cycle molecules (caspase 3, PARP, BCL-2, BCL-xl, cyclin D1, cyclin B1, CDK4); test: Western blot of cell survival and cell cycle molecules in HEC-1A cells; type: cell-based, Human; details: 24 h, single agents at various concentrations, combination 75 μM each
Procedure: as §4

[5] = test system: advanced stage/recurrent endometrial cancer; details: advanced stage / metastatic and recurrent endometrial cancer patients, cited from earlier work

Compound	Tumor growth reduction (tumor volume and tumor weight) (HEC-1A xenograft)	Dose generally safe for use in humans [1]	Bioavailability [2]	IC50 (HEC-1A cells)	IC50 (ECC-1 cells)	ER expression [3]	Expression of p-ERK1/2 [3]	Expression of p-STAT3 and p-AKT [3]	Cleavage of caspase 3 [4]	Expression of BCL-2 and BCL-xl [4]	Expression of cyclin D1, cyclin B1 and CDK4 [4]	Response rate [5]	Response rate ([5]; listed as MA)
COc1cc(/C=C/c2ccc(O)cc2)cc(OC)c1 [pterostilbene]	non-significant	up to 250 mg/day	superior bioavailability as compared to Resveratrol	72 to 78 µM	72 to 78 µM	slightly decreased	no significant effect	no significant effect	increased cleavage	decrease	inhibited	–	–
megestrol acetate [reference compound]	non-significant	–	–	–	–	did not significantly alter	did not significantly alter	did not significantly alter	little effect	little effect	little impact	20-30%	25-30%

From patent US11389460B2, “Methods and compositions for treating endometrial cancer” (City of Hope, priority 2017, dated 2022)
